{"source": "paper PMC3923778", "about": "(PLoS Currents, 2014)", "key": {"[1]": {"target": "T1, PDE5 Cat (Homo sapiens, UniProt O76074)", "T1 construct": "using full length PDE5 versus the catalytic domain used in our assays; Scottish Biomedical (contract laboratory)", "test": "IMAP PDE activity assay (Scottish Biomedical)", "type": "biochemical", "conditions": "PDE5 Cat (catalytic domain)"}, "[2]": {"target": "T2, PDE1B (Homo sapiens, UniProt Q01064)", "T2 construct": "Cerep (contract laboratory)", "T2 sequence (Q01064 whole entry, species assumed)": "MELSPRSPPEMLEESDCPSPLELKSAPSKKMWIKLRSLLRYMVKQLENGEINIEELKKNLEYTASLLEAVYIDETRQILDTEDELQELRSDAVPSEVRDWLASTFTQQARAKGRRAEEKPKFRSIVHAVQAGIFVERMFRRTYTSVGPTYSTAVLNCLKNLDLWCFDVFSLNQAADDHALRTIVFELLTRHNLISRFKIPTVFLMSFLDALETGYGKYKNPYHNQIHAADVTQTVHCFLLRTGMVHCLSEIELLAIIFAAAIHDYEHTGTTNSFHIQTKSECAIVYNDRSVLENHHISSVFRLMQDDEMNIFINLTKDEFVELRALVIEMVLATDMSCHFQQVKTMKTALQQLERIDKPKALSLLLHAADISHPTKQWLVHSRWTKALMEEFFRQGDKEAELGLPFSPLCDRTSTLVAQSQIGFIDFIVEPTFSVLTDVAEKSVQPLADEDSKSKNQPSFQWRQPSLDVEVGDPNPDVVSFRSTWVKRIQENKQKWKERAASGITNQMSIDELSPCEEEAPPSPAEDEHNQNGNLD", "test": "Cerep diversity panel screen at 10 µM", "type": "biochemical", "description": "(§1) Studies were conducted at Cerep (France)"}, "[3]": {"target": "T3, PDE2A (Homo sapiens, UniProt O00408)", "T3 construct": "Cerep (contract laboratory)", "T3 sequence (O00408 whole entry, species assumed)": "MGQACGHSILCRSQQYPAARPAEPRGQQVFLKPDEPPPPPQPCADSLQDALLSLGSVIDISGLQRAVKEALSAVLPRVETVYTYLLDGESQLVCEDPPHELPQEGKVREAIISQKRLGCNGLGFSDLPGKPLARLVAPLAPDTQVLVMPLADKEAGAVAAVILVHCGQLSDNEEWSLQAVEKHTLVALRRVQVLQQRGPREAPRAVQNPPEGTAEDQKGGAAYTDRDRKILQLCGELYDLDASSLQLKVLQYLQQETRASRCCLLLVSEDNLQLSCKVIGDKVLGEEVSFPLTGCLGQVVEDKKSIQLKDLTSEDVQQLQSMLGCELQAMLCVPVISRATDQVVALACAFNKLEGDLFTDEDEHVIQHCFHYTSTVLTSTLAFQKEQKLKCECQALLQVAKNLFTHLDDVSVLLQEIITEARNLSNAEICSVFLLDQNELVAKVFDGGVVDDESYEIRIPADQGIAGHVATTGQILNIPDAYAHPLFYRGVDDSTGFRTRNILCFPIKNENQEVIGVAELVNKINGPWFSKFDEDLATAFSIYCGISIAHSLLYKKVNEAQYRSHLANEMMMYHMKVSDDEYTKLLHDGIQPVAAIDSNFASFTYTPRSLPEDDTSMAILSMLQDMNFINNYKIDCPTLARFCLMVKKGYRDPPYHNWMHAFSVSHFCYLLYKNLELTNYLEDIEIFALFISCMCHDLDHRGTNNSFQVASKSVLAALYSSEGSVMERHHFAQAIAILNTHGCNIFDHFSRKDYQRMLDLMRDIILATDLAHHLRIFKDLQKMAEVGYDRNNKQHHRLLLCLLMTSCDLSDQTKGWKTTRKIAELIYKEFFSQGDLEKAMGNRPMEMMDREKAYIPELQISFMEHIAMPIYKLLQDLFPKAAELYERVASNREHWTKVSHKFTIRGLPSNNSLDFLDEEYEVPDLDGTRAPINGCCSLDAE", "test": "Cerep diversity panel screen at 10 µM", "type": "biochemical", "description": "as §1"}, "[4]": {"tested_on": "cGMP levels in the striatum", "test": "Microdialysis PD: cGMP in striatal extracellular dialysate", "type": "in vivo, mouse", "conditions": "male R6/2", "description": "Microdialysis PK/PD studies were conducted at Brains Online, Inc. (San Francisco, CA, USA)\nMale R6/2 (CBA/C57Bl/6 strain, CAG 120) mice aged 7-8 weeks (20 - 30 g; The Jackson Laboratory, USA) were used for the experiments. The animals were group housed in plastic cages (3-4 animals / cage) and had access to food and water ad libitum. Experiments were conducted in accordance with the declarations of Helsinki and were approved by the Institutional Animal Care and Use Committee of the University of California, San-Francisco.\nMice were anesthetized using isoflurane (2%, 800 mL/min O2). Bupivacain/epinephrine was used for local anesthesia. Carprophen was used peri-/post-operative as analgesia. The animals were placed in a stereotaxic frame (Kopf instruments, USA), and microdialysis probes were inserted into the striatum. Coordinates for the tips of the probes were for striatum: […] (AP) = +0.8 mm to bregma, lateral (L) = -1.7 mm to midline and ventral (V) = -4.0 mm to dura, the toothbar was set at 0.0 mm (Paxinos and Franklin, 2001). […] After surgery animals were kept individually in cages and provided food and water ad libitum. Animals were fasted the night before the experiment.\nExperiments were performed one day after surgery. On the day of the experiment, the probes of the animals were connected with flexible PEEK tubing to a microperfusion pump (Syringe pump UV 8301501, Univentor, Malta). MQ probes were perfused with aCSF containing 0.2% albumin at a flow rate of 0.10 µL/min. As the carrier flow, ultrapurified H2O was used at a flow rate of 0.70 µL/min. I-shaped probes were perfused with aCSF at a flow rate of 1.5 µL/min. Microdialysis samples were collected for 30-minute periods by an automated fraction collector (CMA 142, Sweden) into mini-vials. Samples originating from I-shaped probes were collected into mini-vials already containing 15 µL of 0.02 M formic acid. 10 µL of 0.02 M formic acid was added in the samples originating from MQ probes. […] Following compound administration, microdialysate samples continued to be collected for 240 min at 30 minute intervals. All dialysis samples were stored at -80 °C.\nConcentrations of cGMP were determined by HPLC with tandem mass spectrometry (MS/MS) detection. Standard samples were prepared in artificial dialysate matrix, consisting of 3 parts (v/v) aCSF mixed with 1 part 0.02M formic acid in ultrapurified H2O. Final concentrations of standard samples were 0.02, 0.05, 0.1, 0.2, 0.5, 1, 2, 5 and 10 nM. Quality control (QC) samples were prepared independently. Final concentrations were 0.3 (QClow), 0.75 (QCmid) and 7.5 (QChigh) nM. […]\nTreatment effects were evaluated among different drug concentrations and also compared to baseline, using two-way ANOVA for repeated measurements followed by Student-Newman-Keuls post-hoc test. […]"}, "[5]": {"tested_on": "PDE1", "design": "method as in PMID 9216839, PMID 17697115, PMID 8961086, PMID 7581878", "conditions": "ref [12], [23], [27], [28], read-out: reported IC50; cited from earlier work"}}, "note": "“Also recorded” adds a separate entry of the source.", "data": [{"molecule": "CN1C(=O)c2nc(Cc3ccc(C(F)(F)F)cc3)[nH]c2N2C1=N[C@H]1CCC[C@H]12", "note": "[SCH-51866, (+)-cis-5,6a,7,8,9,9a-hexahydro-2-[4-[trifluro-methyl]phenylmethyl]-5-methyl-cylopent[4,5]imidazo [2,1-b]purin-4(3H)one]", "values": [{"measurement": "IC50", "setting": "[1]", "value": 2.84, "unit": "µM"}, {"measurement": "inhibition at 10 µM", "setting": "[2]", "value": 100, "unit": "%"}, {"measurement": "inhibition at 10 µM", "setting": "[3]", "value": 92, "unit": "%"}, {"measurement": "Elevation in cGMP in extracellular dialysate over baseline", "setting": "[4]; 3 mg/kg po acute", "value": "not"}, {"measurement": "Elevation in cGMP in extracellular dialysate over baseline", "setting": "[4]; 10 mg/kg po acute", "value": "significantly elevated cGMP levels; also recorded: significant over baseline"}, {"measurement": "Elevation in cGMP in extracellular dialysate over baseline", "setting": "[4]; 30 mg/kg po acute", "value": "significantly elevated cGMP levels; also recorded: significant over baseline"}, {"measurement": "accumulation of cGMP versus dose", "setting": "[4]; acute po", "value": "increased dose-proportionally"}, {"measurement": "IC50", "setting": "[5]", "value": 0.07, "unit": "µM"}]}]}
